# According to patent publication US8999934B2, “Treatment of astrocytes-tumor cells inhibitors of endothelin receptors” (Board of Regents, The University of Texas System, priority 2009, dated 2015):
# Several values for one entry are separate records, joined by “and”; a condition that tells them apart may be missing. Equal values may be shown once.
# How the values were obtained:
# [1] = tested on: human PC14Br4 lung cancer cells; format: cell-based; conditions: for protection of tumor cells against the drug by co-culture with astrocytes: cultured alone vs with astrocytes, Adriamycin 200 ng/ml, vinblastine 3 ng/ml, vincristine 8 ng/ml, 5-FU 500 ng/ml, cisplatinum 2.4 μg/ml
# Protocol: (§1) Astrocytes and NIH 3T3 fibroblasts were transfected with GFP genes as previously described (S5, S6). Target tumor cells, astrocytes, or 3T3 fibroblasts were harvested from a 60-70% confluent culture by a brief (2-minute) exposure to 0.25% trypsin in a 0.1% EDTA/PBS solution. The cells were dislodged by tapping the culture flasks briskly and resuspended in CMEM. The murine astrocytes, 3T3 fibroblasts, and tumor cells were plated alone or as co-culture at a tumor cell/astrocyte/3T3 cell ratio of 1:2 onto each of the 35-mm diameter well of the sterile 6-well tissue culture multi-well dish. The cells were allowed to adhere overnight in a humidified 37° C. incubator in an atmosphere of 6.4% carbon dioxide plus air. The cultures were then washed and incubated with fresh CMEM (negative control) or medium containing various concentrations of TAXOL® (Paclitaxel; NDC 0015-3476-30, Bristol-Myers Squibb, Princeton, N.J.) and other chemotherapeutic drugs (see below).
# (§2) To determine whether direct contact between tumor cells and astrocytes (or fibroblasts serving as control) was a prerequisite to produce induction of resistance to chemotherapy, we performed the co-culture assay using a Transwell-Boyden chamber, i.e., plating the tumor cells in the chamber and the ImmortoAstrocytes (or fibroblasts) in the well. […]
# In the second set of in vitro studies, we determined whether astrocyte-mediated induction of tumor cell resistance to chemotherapeutic drugs is transient or permanent. The human lung cancer PC14Br4 cells were co-cultured with either astrocytes or 3T3 fibroblasts in medium alone or medium containing 5 ng/ml paclitaxel. […] From parallel wells, we harvested surviving tumor cells and re-plated them on different monolayers of astrocytes or 3T3 cells. These co-cultures were of tumor cells first co-cultured with astrocytes and then with either astrocytes or 3T3 cells, or of tumor cells first cultured with 3T3 cells and then with either 3T3 cells or astrocytes. The second round of co-cultures then received media containing 5 ng/ml of paclitaxel. […]
# (§3) The supernatant medium containing floating cells were collected from each dish into a 15-ml conical centrifuge tube. The attached cells were harvested by briefly exposing the cells to 0.25% trypsin in a solution containing 0.1% EDTA/PBS. Cells were combined with the corresponding supernatant medium. The samples were pelleted by centrifugation at 100 g for 5 minutes. The pellets were resuspended in 10 ml of HBSS and further pelleted at 100 g for 5 minutes. The samples were resuspended by vortex and the cells fixed in 1 ml of 1% paraformaldehyde for 10 minutes at room temperature. The samples were then transferred into polypropylene microcentrifuge tubes and the fixed cells were washed in 1 ml of PBS and then pelleted at 10,000 g for 1 minute. The pellets were resuspended by vortex and the cells fixed overnight in 1 ml of ethanol at −20° C. The cells were subsequently vortexed and pelleted by a microcentrifuge at 10,000 g for 1 minute. The samples were then vortexed and the pellets resuspended and stained in 300 of propidium iodide (50 μg/ml; Cat. P4864, Sigma) containing RNAse (15 μg/ml; Cat. A7973, Promega, Madison, Wis.) for 20-30 minutes at 37° C.
# [2] = tested on: MDA231 brain metastases; assay: In vivo tumor growth of MDA231 brain metastases (brain sections fixed and stained); parameters: species or system nude mice; conditions: Paclitaxel 8 mg/kg i.p. once per week, ACT-064992 50 mg/kg orally once per day, 28 days of treatment
# Protocol: To further validate the efficacy of endothelin receptor antagonist therapy for existing brain metastasis, the Inventors performed exemplary in vivo experiments using mice. Nude mice were injected with 10,000 viable MDA231 cells mice by way of the internal carotid artery. […] The Inventors thus started treatments at this time point.
# The treatment groups at two weeks post injection were: Control (vehicle) (FIG. […] 18B); ACT-064992 50 mg/kg, p.o. daily (FIG. […] 18D).
# All mice were killed on day 28 of treatment. Brain sections were fixed and stained. Brain metastases were evaluated visually. Exemplary specimens are shown in FIG. 18A-D at the same magnifications.
# [3] = tested on: MDA231 brain metastases; assay: In vivo tumor cell apoptosis, TUNEL of brain slices; parameters: species or system nude mice; conditions: Paclitaxel 8 mg/kg i.p. once per week, ACT-064992 50 mg/kg orally once per day, 28 days
# Protocol: Brain slices of mice from different treatment groups were analyzed by in situ Terminal deoxynucleotidyl transferase dUTP nick end labeling (TUNEL). Negoescu A, et al., J Histochem Cytochem. 1996 September; 44(9):959-68. […] FIG. 21A-C.
# [4] = tested on: human MDA-MB-231 breast cancer cells; format: cell-based
# Protocol: as §1, §2, §3
# [5] = tested on: ETAR; assay: ETAR/phosphoserine immunostaining of brain slices; conditions: Paclitaxel 8 mg/kg i.p. once per week, ACT-064992 50 mg/kg orally once per day, 28 days
# Protocol: Female nude mice (10-12 weeks old) were injected in the internal carotid artery with 10,000 viable MDA231 cells. Two weeks after the injection when brain metastases were established, the mice were randomized into 4 treatment groups (n=10): 1) Control (injected with vehicle solution); 2) Paclitaxel (8 mg/kg administered intraperitoneally once per week); 3) ACT-064992 (50 mg/kg administered orally once per day); and 4) Combination of ACT-064992 and Paclitaxel. All mice were euthanized after 28 days of treatment and autopsied. The brains were collected for histologic study and immunohistochemistry.
# Brain slices of mice from the four treatment groups were immunostained for ETAR (red) and phosphoserine (green) colocalization produced orange-yellow color.
# [6] = tested on: pAKT; assay: Expression of survival factor pAKT in co-cultures of astrocytes and tumor cells; format: cell-based; conditions: ACT-064992 added to co-cultures of astrocytes and tumor cells
# Protocol: (§4) ETR antagonists as shown above were ineffective as a single agent chemotherapy. This negative result made the dramatic effect seen with ETR antagonists as a component of combination therapies highly unexpected. In co-culture experiments, cell culture ratios were 1:2 tumor cell:astrocyte cell (50, 000:100,000), and treatments were using paclitaxel (TAXOL®) (6 ng/ml) and/or ACT-064992 (100 nM) for 48 hours (FIG. 15; *p<0.01). For the control experiments using MDA-MB-231 cells, the same astrocyte-mediated protection from paclitaxel occurred as in prior experiments. There were two surprising results from these combination experiments.
# [7] = tested on: pMAPK; assay: Expression of survival factor pMAPK in co-cultures of astrocytes and tumor cells; format: cell-based; conditions: ACT-064992 added to co-cultures of astrocytes and tumor cells
# Protocol: as §4
# [8] = tested on: ETAR/ETBR; conditions: requires ⅓ the dose; cited from earlier work
# [9] = tested on: MDA231 brain metastases; assay: In vivo tumor cell proliferation, CD31/Ki67 staining of brain slices; parameters: species or system nude mice; conditions: Paclitaxel 8 mg/kg i.p. once per week, ACT-064992 50 mg/kg orally once per day, 28 days
# Description: Representative brain slices from the four treatment groups were stained for CD31 (endothelial cell marker) and Ki67 (cell proliferation marker). […] FIGS. 20A, B, C and D, respectively.
# [10] = tested on: MDA231 breast cancer brain metastasis; assay: Survival study, experimental human MDA231 breast cancer brain metastasis; format: in vivo, nude mice; conditions: 5×10^3 MDA231 cells, treatment from day 14, Paclitaxel 5 mg/kg i.p. once weekly, individual mice
# Protocol: 5×10^3 MDA231 cells were injected according to the protocol in Experiment 10. Treatment began on day 14 after injection according to the protocol in Experiment 10. A Survival curve is drawn and the p-value derived to compare the statistical significance among treatment groups.
# Control (vehicle): daily oral administrations and once weekly i.p. injections.
# Paclitaxel (5 mg/kg): daily oral vehicle administrations and once weekly i.p. injection of Paclitaxel.
# ACT064992 (10 mg/kg): daily oral ACT064992 administrations and once weekly i.p. injections of Paclitaxel.
# [11] = tested on: tumor cells co-cultured with astrocytes; assay: In vitro cell based chemoresistance assay with endothelin receptor antagonists (overall statement); conditions: higher dose Bosentan
# Description: Using the in vitro cell based chemoresistance assay scheme described above, the Inventors tested two endothelin receptor antagonists having dual ETAR and ETBR affinity to assess the degree of astrocyte-mediated protection against the cytotoxic effects of the chemotherapy agent.
# [12] = tested on: pAKT; assay: pAKT staining of MDA-MB-231 cells co-cultured with astrocytes and treated with Taxol; format: cell-based, human; conditions: MDA-MB-231 co-cultured with astrocytes; Taxol 15 ng/ml, 24 hours
# Protocol: In the next set of studies, 10,000 GFP-labeled MDA-MB-231 cells were co-cultured with 20,000 astrocytes in chamber slides. Twenty-four hours later, the cultures were treated for 24 hours with Taxol (15 ng/ml) and then stained for phosphorylated pAKT (4% PFA fixation).
# [13] = 100 nM, 48 hours, alone or with astrocytes or with 3T3 fibroblasts
# [14] = tumor cell-astrocyte co-cultures 1:2, paclitaxel 6 ng/ml, ACT-064992 100 nM, 48 hours
smiles,measurement,setting,value
O=c1[nH]cc(F)c(=O)[nH]1 [5-FU],protection of tumor cells against the drug by co-culture with astrocytes,[1]; paclitaxel 5 ng/ml,significant (P<0.01) protection
"CCCNS(=O)(=O)Nc1ncnc(OCCOc2ncc(Br)cn2)c1-c1ccc(Br)cc1 [ACT-064992, N-[5-(4-bromophenyl)-6-(2-(5-bromopyrimidin-2-yloxy)ethoxy)-pyrimidin-4-yl]-N′-propylaminosulfonamide]",brain metastatic tumors (histology),[2],well defined metastatic tumors
same,apoptotic (TUNEL) cells in brain,[3],few to no apoptotic cells
same,cytotoxic effects (degree of apoptosis),[4]; [13],did not produce any measurable cytotoxic effects
same,effect on astrocyte-mediated protection from paclitaxel,[4]; [14],negate the astrocyte-mediated protection from paclitaxel
same,efficacy of paclitaxel compared to control experiments without astrocytes (super-sensitization),[4]; [14],enhanced the efficacy of paclitaxel
same,cytotoxic effects (degree of apoptosis),[1]; [13],did not produce any measurable cytotoxic effects
same,phosphorylation of ETAR in brain,[5],prevented phosphorylation of the ETAR
same,expression of survival factor pAKT,[6],inhibited the expression
same,expression of survival factor pMAPK,[7],inhibited the expression
same,pharmaceutical activity relative to Bosentan,[8],roughly three times more pharmaceutically active than Bosentan
same,proliferating (Ki67) cells in brain,[9],a large number of proliferating cells
same,Day of death (after treatment),[10]; ACT064992 10 mg/kg oral daily,51 days and 63 days and 68 days and 75 days and 78 days and 82 days
COc1cccc2c1C(=O)c1c(O)c3c(c(O)c1C2=O)C[C@@](O)(C(=O)CO)C[C@@H]3O[C@H]1C[C@H](N)[C@H](O)[C@H](C)O1 [Adriamycin],protection of tumor cells against the drug by co-culture with astrocytes,[1]; paclitaxel 5 ng/ml,significant (P<0.01) protection
COc1ccccc1Oc1c(NS(=O)(=O)c2ccc(C(C)(C)C)cc2)nc(-c2ncccn2)nc1OCCO [Bosentan],results of Bosentan experiments compared with the ACT-064992 experiments,[11],analogous results
N.N.[Cl][Pt][Cl] [cisplatinum],protection of tumor cells against the drug by co-culture with astrocytes,[1]; paclitaxel 5 ng/ml,significant (P<0.01) protection
CC(=O)O[C@H]1C(=O)[C@@]2(C)[C@H]([C@H](OC(=O)c3ccccc3)[C@]3(O)C[C@H](OC(=O)[C@H](O)[C@@H](NC(=O)c4ccccc4)c4ccccc4)C(C)=C1C3(C)C)[C@]1(OC(C)=O)CO[C@@H]1C[C@@H]2O [paclitaxel],brain metastatic tumors (histology),[2],well defined metastatic tumors
same,pAKT expression by tumor cells,[12],high levels of pAKT
same,apoptotic (TUNEL) cells in brain,[3],few to no apoptotic cells
same,reduction of relative apoptotic index of tumor cells by culturing with astrocytes (increased chemoresistance),"[4]; paclitaxel 5 ng/ml, 72 hours, co-culture with astrocytes (not 3T3 fibroblasts), mean±S.D., P<0.01",58.3 ± 8.9%
same,protection of tumor cells against the drug by co-culture with astrocytes,[1]; paclitaxel 5 ng/ml,significant (P<0.01) protection
same,reduction of relative apoptotic index of tumor cells by culturing with astrocytes (increased chemoresistance),"[1]; paclitaxel 5 ng/ml, 72 hours, co-culture with astrocytes (not 3T3 fibroblasts), mean±S.D., P<0.05",61.8±6.7%
same,phosphorylation of ETAR in brain,[5],expressed phosphorylated ETAR
same,proliferating (Ki67) cells in brain,[9],a large number of proliferating cells
same,Day of death (after treatment),[10]; oral vehicle daily,49 day and 53 day and 60 day and 63 day and 74 day (2×) and 78 day
CC[C@]1(O)C[C@@H]2CN(CCc3c([nH]c4ccccc34)[C@@](C(=O)OC)(c3cc4c(cc3OC)N(C)[C@H]3[C@@](O)(C(=O)OC)[C@H](OC(C)=O)[C@]5(CC)C=CCN6CC[C@]43[C@@H]65)C2)C1 [vinblastine],protection of tumor cells against the drug by co-culture with astrocytes,[1]; paclitaxel 5 ng/ml,significant (P<0.01) protection
CC[C@]1(O)C[C@H]2CN(CCc3c([nH]c4ccccc34)[C@@](C(=O)OC)(c3cc4c(cc3OC)N(C=O)[C@H]3[C@@](O)(C(=O)OC)[C@H](OC(C)=O)[C@]5(CC)C=CCN6CC[C@]43[C@@H]65)C2)C1 [vincristine],protection of tumor cells against the drug by co-culture with astrocytes,[1]; paclitaxel 5 ng/ml,significant (P<0.01) protection
